Results: ChEMBL document CHEMBL5528046, “Discovery of Novel PROTAC Degraders of p300/CBP as Potential Therapeutics for Hepatocellular Carcinoma” (J Med Chem, 2024)
Active and inactive are the calls of the source. No cut-off for these calls is given here.

Tests used:
[1] = biological target: T1, Protein cereblon/Histone acetyltransferase p300 (Homo sapiens, UniProt Q09472+Q96SW2); assay: PROTAC activity at CRBN/p300 in human SK-HEP1 cells assessed as induction of p300 protein degradation at 0.01 uM incubated for 24 hrs relative to control; format: cell-based
[2] = biological target: T1, Protein cereblon/Histone acetyltransferase p300; assay: PROTAC activity at CRBN/p300 in human SK-HEP1 cells assessed as induction of p300 protein degradation by measuring residual activity at 10 nM incubated for 24 hrs by immunoblotting analysis (reference value: 100%); format: cell-based
[3] = biological target: T1, Protein cereblon/Histone acetyltransferase p300; assay: PROTAC activity at CRBN/p300 in human SK-HEP1 cells assessed as induction of p300 protein degradation by measuring residual activity at 100 nM incubated for 24 hrs by immunoblotting analysis (reference value: 100%); format: cell-based
[4] = biological target: T1, Protein cereblon/Histone acetyltransferase p300; assay: PROTAC activity at CRBN/p300 in human SK-HEP1 cells assessed as induction of p300 protein degradation by measuring residual activity at 250 nM incubated for 24 hrs by immunoblotting analysis (reference value: 100%); format: cell-based
[5] = biological target: T2, Protein cereblon/CREB-binding protein (Homo sapiens) (UniProt Q92793+Q96SW2); assay: PROTAC activity at CRBN/CBP in human SK-HEP1 cells assessed as induction of […] protein degradation by measuring residual activity at 0.5 uM incubated for 24 hrs by immunoblotting analysis (reference value: 100%); format: cell-based
[6] = biological target: T1, Protein cereblon/Histone acetyltransferase p300; assay: PROTAC activity at CRBN/p300 in human SK-HEP1 cells assessed as induction of p300 protein degradation by measuring residual activity at 1 uM incubated for 0.5 hrs by immunoblotting analysis (reference value: 100%); format: cell-based
[7] = biological target: T1, Protein cereblon/Histone acetyltransferase p300; assay: PROTAC activity at CRBN/p300 in human SK-HEP1 cells assessed as induction of p300 protein degradation by measuring residual activity at 1 uM incubated for 1 hrs by immunoblotting analysis (reference value: 100%); format: cell-based
[8] = biological target: T1, Protein cereblon/Histone acetyltransferase p300; assay: PROTAC activity at CRBN/p300 in human SK-HEP1 cells assessed as induction of p300 protein degradation by measuring residual activity at 1 uM incubated for 6 hrs by immunoblotting analysis (reference value: 100%); format: cell-based
[9] = biological target: T1, Protein cereblon/Histone acetyltransferase p300; assay: PROTAC activity at CRBN/p300 in human SK-HEP1 cells assessed as induction of p300 protein degradation by measuring residual activity at 1 uM incubated for 12 hrs by immunoblotting analysis (reference value: 100%); format: cell-based
[10] = biological target: T1, Protein cereblon/Histone acetyltransferase p300; assay: PROTAC activity at CRBN/p300 in human SK-HEP1 cells assessed as induction of p300 protein degradation by measuring residual activity at 2 uM incubated for 24 hrs by immunoblotting analysis (reference value: 100%); format: cell-based
[11] = biological target: T2, Protein cereblon/CREB-binding protein (Homo sapiens); assay: PROTAC activity at CRBN/CBP in human SK-HEP1 cells assessed as induction of […] protein degradation by measuring residual activity incubated for 24 hrs by immunoblotting analysis; format: cell-based; conditions: dose 0.5-2 µM
[12] = biological target: T1, Protein cereblon/Histone acetyltransferase p300; assay: PROTAC activity at CRBN/p300 in human SK-HEP1 cells assessed as induction of p300 degradation by measuring residual activity at 0.5 uM pretreated with MG-132 followed by compound addition by immunoblotting analysis relative to control; format: cell-based
[13] = biological target: T1, Protein cereblon/Histone acetyltransferase p300; assay: PROTAC activity at CRBN/p300 in human SK-HEP1 cells assessed as induction of p300 degradation by measuring residual activity at 0.5 uM pretreated with MLN4924 at 0.5 uM followed by compound addition by immunoblotting analysis relative to control; format: cell-based
[14] = biological target: T1, Protein cereblon/Histone acetyltransferase p300; assay: PROTAC activity at CRBN/p300 in human SK-HEP1 cells assessed as induction of p300 degradation by measuring residual activity at 0.5 uM pretreated with thalidomide at 0.5 uM followed by compound addition by immunoblotting analysis relative to control; format: cell-based
[15] = biological target: T1, Protein cereblon/Histone acetyltransferase p300; assay: PROTAC activity at CRBN/p300 in human SK-HEP1 cells assessed as induction of p300 degradation by measuring increase in p21 level at 0.5 uM pretreated with MG-132 at 1 uM followed by compound addition by immunoblotting analysis relative to control; format: cell-based
SK-HEP1 [16] = assay: Downregulation of POSTN mRNA expression in human SK-HEP1 cells at 1 uM incubated for 24 hrs by RT-qPCR analysis; format: functional, cell-based
SK-HEP1 [17] = assay: Downregulation of COL3A1 mRNA expression in human SK-HEP1 cells at 1 uM incubated for 24 hrs by RT-qPCR analysis; format: functional, cell-based
SK-HEP1 [18] = assay: Downregulation of ABI3BP mRNA expression in human SK-HEP1 cells at 1 uM incubated for 24 hrs by RT-qPCR analysis; format: functional, cell-based
SK-HEP1 [19] = assay: Downregulation of IGFBP3 mRNA expression in human SK-HEP1 cells at 1 uM incubated for 24 hrs by RT-qPCR analysis; format: functional, cell-based
[20] = Antiproliferative activity against human JHH7 cells assessed as inhibition of cell growth incubated for 5 days by CCK-8 assay; format: functional, cell-based; conditions: JHH7, 120 h
SK-HEP1 [21] = assay: Inhibition of colony formation in human SK-HEP1 cells incubated for 14 days with compound containing media replacement for every 3 days by crystal violet staining based assay; format: functional, cell-based; conditions: dose 0.5-2 µM, time 14.0 day
SK-HEP1 [22] = assay: Induction of cell cycle arrest at G2/M phase in human SK-HEP1 cells incubated for 48 hrs by RNase/PI staining based flow cytometry analysis; format: functional; conditions: dose 0.5-2 µM
SK-HEP1 [23] = assay: Induction of apoptosis in human SK-HEP1 cells incubated for 72 hrs by Annexin V-FITC/PI staining based flow cytometry analysis; format: functional, cell-based; conditions: dose 0.5-2 µM
SK-HEP1 [24] = assay: Induction of cell cycle arrest at G2/M phase in human SK-HEP1 cells assessed as SKP2 protein level at 0.5 uM incubated for 24 hrs by immunoblotting analysis (reference value: 100%); format: functional
SK-HEP1 [25] = assay: Induction of cell cycle arrest at G2/M phase in human SK-HEP1 cells assessed as CDK6 protein level at 0.5 uM incubated for 24 hrs by immunoblotting analysis (reference value: 100%); format: functional
SK-HEP1 [26] = assay: Induction of cell cycle arrest at G2/M phase in human SK-HEP1 cells assessed as CDK6 protein level at 1 uM incubated for 24 hrs by immunoblotting analysis (reference value: 100%); format: functional
SK-HEP1 [27] = assay: Induction of cell cycle arrest at G2/M phase in human SK-HEP1 cells assessed as reduction in CDK6 protein level at 2 uM incubated for 24 hrs by immunoblotting analysis (reference value: 100%); format: functional; design: scale not given: the % may be the effect or the level left
Mus musculus = assay: In vivo PROTAC activity at CRBN/p300 in nude mouse xenografted with human SK-HEP1 cells assessed as reduction in p300 protein level in tumor at 50 mg/kg, ip measured after 24 hrs by immunoblotting analysis; format: functional, organism-based
[28] = biological target: T2, Protein cereblon/CREB-binding protein (Homo sapiens); assay: In vivo PROTAC activity at CRBN/CBP in nude mouse xenografted with human SK-HEP1 cells assessed as reduction in CBP protein level in tumor at 50 mg/kg, ip measured after 24 hrs by immunoblotting analysis; format: functional, organism-based
[29] = biological target: T1, Protein cereblon/Histone acetyltransferase p300; assay: PROTAC activity at CRBN/p300 in human SK-HEP1 cells assessed as increase in protein ubiquitination at 2 uM pretreated with MG132 at 1 uM followed by compound treatment and further incubated for 24 hrs by immunoblotting analysis (reference value: 100%); format: cell-based

T2 sequence (Q92793 2-2442 limits assumed): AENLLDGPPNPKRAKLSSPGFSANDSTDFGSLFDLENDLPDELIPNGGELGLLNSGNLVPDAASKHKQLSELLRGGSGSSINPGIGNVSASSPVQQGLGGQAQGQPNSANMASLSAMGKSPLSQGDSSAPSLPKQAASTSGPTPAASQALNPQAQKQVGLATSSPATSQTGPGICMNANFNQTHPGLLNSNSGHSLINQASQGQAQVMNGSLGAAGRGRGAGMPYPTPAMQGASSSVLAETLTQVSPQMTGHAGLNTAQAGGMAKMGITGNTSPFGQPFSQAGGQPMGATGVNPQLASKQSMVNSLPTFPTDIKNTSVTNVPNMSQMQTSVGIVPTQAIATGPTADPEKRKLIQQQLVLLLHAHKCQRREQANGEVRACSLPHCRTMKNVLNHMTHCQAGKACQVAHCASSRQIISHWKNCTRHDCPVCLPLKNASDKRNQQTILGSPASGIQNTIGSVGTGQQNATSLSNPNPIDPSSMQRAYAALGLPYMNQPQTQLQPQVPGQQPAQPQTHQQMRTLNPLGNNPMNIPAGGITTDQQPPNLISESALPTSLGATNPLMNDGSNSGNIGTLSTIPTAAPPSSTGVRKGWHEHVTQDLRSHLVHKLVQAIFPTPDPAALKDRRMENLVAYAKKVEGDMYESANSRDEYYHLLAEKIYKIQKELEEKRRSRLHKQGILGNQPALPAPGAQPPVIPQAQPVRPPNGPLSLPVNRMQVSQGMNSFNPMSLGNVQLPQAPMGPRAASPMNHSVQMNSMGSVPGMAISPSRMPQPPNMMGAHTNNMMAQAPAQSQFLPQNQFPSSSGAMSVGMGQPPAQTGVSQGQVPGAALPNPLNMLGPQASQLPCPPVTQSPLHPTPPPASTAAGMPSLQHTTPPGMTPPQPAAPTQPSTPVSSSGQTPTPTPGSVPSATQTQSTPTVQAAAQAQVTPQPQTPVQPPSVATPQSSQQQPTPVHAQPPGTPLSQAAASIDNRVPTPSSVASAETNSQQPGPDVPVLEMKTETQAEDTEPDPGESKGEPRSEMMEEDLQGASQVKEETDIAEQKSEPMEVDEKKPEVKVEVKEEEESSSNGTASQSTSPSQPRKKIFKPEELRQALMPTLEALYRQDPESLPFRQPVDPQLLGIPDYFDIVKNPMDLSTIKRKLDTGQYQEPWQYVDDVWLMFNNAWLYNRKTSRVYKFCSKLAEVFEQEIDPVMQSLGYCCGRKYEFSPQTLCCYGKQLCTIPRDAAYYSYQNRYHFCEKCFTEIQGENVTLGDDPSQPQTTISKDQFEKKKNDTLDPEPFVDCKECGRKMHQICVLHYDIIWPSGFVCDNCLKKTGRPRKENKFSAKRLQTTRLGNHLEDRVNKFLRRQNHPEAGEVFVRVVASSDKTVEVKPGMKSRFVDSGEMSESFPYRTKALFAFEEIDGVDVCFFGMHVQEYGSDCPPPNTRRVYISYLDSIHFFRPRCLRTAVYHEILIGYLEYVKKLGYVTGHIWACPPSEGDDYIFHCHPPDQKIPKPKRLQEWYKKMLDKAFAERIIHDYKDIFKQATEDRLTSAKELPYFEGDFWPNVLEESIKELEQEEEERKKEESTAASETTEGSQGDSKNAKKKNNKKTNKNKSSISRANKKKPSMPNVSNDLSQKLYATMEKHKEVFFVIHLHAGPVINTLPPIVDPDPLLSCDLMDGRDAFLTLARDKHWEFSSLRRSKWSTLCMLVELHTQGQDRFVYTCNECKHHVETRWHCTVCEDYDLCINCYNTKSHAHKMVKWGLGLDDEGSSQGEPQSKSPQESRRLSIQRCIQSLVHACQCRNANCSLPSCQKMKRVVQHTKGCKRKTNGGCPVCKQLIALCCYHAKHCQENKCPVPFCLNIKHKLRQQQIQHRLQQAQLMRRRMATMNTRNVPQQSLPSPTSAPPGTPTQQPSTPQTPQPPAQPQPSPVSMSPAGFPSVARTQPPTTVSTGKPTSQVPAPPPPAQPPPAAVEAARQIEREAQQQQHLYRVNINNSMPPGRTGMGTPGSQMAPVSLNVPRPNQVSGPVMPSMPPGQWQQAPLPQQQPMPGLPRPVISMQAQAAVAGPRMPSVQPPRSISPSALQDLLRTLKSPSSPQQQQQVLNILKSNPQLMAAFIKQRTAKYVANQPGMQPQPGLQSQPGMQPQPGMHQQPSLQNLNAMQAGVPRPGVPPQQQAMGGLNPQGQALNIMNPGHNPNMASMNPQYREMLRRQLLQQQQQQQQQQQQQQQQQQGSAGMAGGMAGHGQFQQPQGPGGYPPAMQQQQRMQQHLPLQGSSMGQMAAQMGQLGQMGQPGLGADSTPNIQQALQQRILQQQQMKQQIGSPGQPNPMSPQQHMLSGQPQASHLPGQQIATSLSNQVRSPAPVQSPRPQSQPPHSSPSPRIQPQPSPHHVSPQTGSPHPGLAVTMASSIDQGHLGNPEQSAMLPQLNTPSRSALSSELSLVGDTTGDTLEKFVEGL
T2 sequence (Q96SW2 whole entry partner): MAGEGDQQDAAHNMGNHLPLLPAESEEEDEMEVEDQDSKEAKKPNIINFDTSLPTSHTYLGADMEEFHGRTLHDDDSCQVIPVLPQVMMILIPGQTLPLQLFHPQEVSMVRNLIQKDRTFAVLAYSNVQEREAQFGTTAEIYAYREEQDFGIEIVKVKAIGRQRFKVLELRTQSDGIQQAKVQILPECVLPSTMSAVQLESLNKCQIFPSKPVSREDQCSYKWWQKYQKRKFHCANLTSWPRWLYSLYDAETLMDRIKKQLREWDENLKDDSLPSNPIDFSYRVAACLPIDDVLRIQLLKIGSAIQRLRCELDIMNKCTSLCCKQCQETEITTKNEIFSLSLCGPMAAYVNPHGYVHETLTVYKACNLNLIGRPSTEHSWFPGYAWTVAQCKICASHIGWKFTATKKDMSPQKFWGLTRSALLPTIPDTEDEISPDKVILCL

Cc1noc(C)c1-c1ccc2c(c1)nc([C@@H]1CCCC(=O)N1c1ccc(F)c(F)c1)n2C1CCN(C2CN(c3ccc4c(c3)C(=O)N(C3CCC(=O)NC3=O)C4=O)C2)CC1 (stereo not given in full)
Activity [1]: 9% | Activity [2]: 70% | Activity [3]: 61% | Activity [4]: 38% | Activity [5]: 98% | Activity [6]: 100% | Activity [7]: 78% | Activity [8]: 59% | Activity [9]: 58% | Activity [10]: 62% | Activity [11]: Dose-Dependent Effect | Activity [12]: 93% | Activity [13]: 101% | Activity [14]: 99% | Activity [15]: 537% | Activity (SK-HEP1 [16]): Active | Activity (SK-HEP1 [17]): Active | Activity (SK-HEP1 [18]): Active | Activity (SK-HEP1 [19]): Active | IC50 [20]: 447 nM | inhibition (SK-HEP1 [21]): Dose-Dependent Effect | Activity (SK-HEP1 [22]): Dose-Dependent Effect | Activity (SK-HEP1 [23]): Dose-Dependent Effect | Activity (SK-HEP1 [24]): 117% | Activity (SK-HEP1 [25]): 104% | Activity (SK-HEP1 [26]): 102% | Activity (SK-HEP1 [27]): 87% | Activity (Mus musculus): Active | Activity [28]: Active | Activity [29]: 114%
